Columns and labels:
Thymidylate synthase = target: T1, Thymidylate synthase (Lactobacillus casei, UniProt P00469); experiment: The compound was tested for inhibition of dTMP synthetase from Lactobacillus casei; parameters: species or system Lacticaseibacillus casei
T1 sequence (P00469 whole entry): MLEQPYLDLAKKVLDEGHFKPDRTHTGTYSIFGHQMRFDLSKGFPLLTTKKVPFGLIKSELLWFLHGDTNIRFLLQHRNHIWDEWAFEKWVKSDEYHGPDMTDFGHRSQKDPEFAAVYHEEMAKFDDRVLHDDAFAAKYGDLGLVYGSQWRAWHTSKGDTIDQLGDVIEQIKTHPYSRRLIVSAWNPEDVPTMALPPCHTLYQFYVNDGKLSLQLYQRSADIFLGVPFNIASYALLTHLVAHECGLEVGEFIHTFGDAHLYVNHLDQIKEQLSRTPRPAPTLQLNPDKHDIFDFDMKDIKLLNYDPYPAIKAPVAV

[1] = target: T2, Thymidylate synthase (Lactobacillus casei) (UniProt P00469); experiment: Binding of 0.1 mM [14C]5,10-CH2-H4 folate to 2.5 nmol dTMP synthetase from Lactobacillus casei; conditions: Lacticaseibacillus casei
T2 sequence (whole entry): T1 sequence (P00469 whole entry)

Ki (Thymidylate synthase)	dpm bound to protein [1]	Structure (SMILES)
2700 nM	1110	C#Cc1cn([C@H]2C[C@H](O)[C@@H](COP(=O)(O)O)O2)c(=O)[nH]c1=O
–	15500	O=c1[nH]c(=O)n([C@H]2C[C@H](O)[C@@H](COP(=O)(O)O)O2)cc1F
